Assay results: PMC9610897, “Cationic Perylene Antivirals with Aqueous Solubility for Studies In Vivo” (Pharmaceuticals, 2022)
≈ marks a conversion by molar mass, not a printed value. Where two headings read alike, the source gives them in different places.

Assays:
CHIKV = CHIKV cytopathic effect (CPE) inhibition test; format: cell-based, Chikungunya virus (CHIKV, strain Nic); settings: for EC50: Chikungunya virus, 120 h, read-out: Antiviral Activity, EC50 ± SD, CHIKV; for Activity against CHIKV (in words): concentrations studied up to 100 μM
[1] = Cell viability assay in Vero cells (resazurin); format: cell-based; settings: green monkey, 5 d, read-out: Cytotoxicity, CC50 ± SD, Vero
Method: (§1) The green monkey kidney (Vero) cell line originated from WHO Biologicals, Switzerland (10–87), and the Madin-Darby canine kidney (MDCK) cell line was obtained from the American Type Culture Collection (ATCC CCL-34).
Two-fold dilutions of the compounds (starting from 100 μM) were prepared in DMEM (Chumakov FSC R&D IBP RAS, Russia) and added to confluent cell monolayers. After 5 days of incubation (37 °C, 5% CO2), the cultural supernatant was substituted with a resazurin solution (25 μg/mL), followed by 4 h incubation (37 °C, 5% CO2). Then, 20 µL of 10% SDS were added to stop the reaction. Fluorescence intensity was measured with Promega GloMax-Multi Detection System (Ex525/Em580–640). Cells treated with dilutions of the compounds and DMSO, but not resazurin, were used to subtract the background fluorescence. All experimental procedures were performed in two replicates. Fluorescence curves were analyzed with Microsoft Excel 2013. 50% Cytotoxic concentrations (CC50) were calculated.

IAV = IAV virus yield reduction assay; format: cell-based, influenza A virus (H1N1, strain A/PR/8/34); settings: Influenza A virus; virus yield reduction in MDCK cells, MOI 1, 24 h, M ± SD; read-out: Antiviral Activity, EC50 ± SD, IAV
Excerpt: as §1
(§2) Viruses and strains used in the present work were severe acute respiratory syndrome-related coronavirus 2 (SARS-CoV-2, strain PIK35, GISAID EPI_ISL_428852), Chikungunya virus (CHIKV, strain Nic, GenBank IDs MN271691-2) and influenza A virus (H1N1, strain A/PR/8/34, ATCC VR-95).
Compound solutions were prepared in DMSO (20 mg/mL). The compounds were weighed in 2 mg amounts and dissolved in 100 μL of DMSO. Then, a series of 3-fold dilutions was prepared, starting from 300 µg/mL, in a cultural medium. The MDCK cell monolayer was treated with compound dilutions and incubated for 1 h in a CO2 incubator at 37 °C. Untreated cells were used as negative control. Afterward, the virus was added (MOI 1), and cells were incubated for 24 h at 37 °C in a CO2 incubator. After incubation, the culture medium was collected, and viral yields were determined by titration. In brief, a series of 10-fold dilutions (10^−7–10^−1) of viral supernatants were prepared in a cultural medium and applied to daily MDCK cell monolayers. Infected cells were incubated for 72 h at 37 °C in a CO2 incubator. The presence of the virus in the culture supernatants was determined using the hemagglutination assay with a 1% suspension of chicken erythrocytes. Viral titer was calculated according to the Reed-and-Muench method and was expressed as 50% tissue infectious doses (TID50) per 100 μL of volume. Inhibition (%) was calculated by comparison with non-treated cells, and EC50 was calculated from inhibitory curves.

[2] = Cell viability assay in MDCK cells (MTT); format: cell-based, canine; settings: dog, read-out: Cytotoxicity, CC50 ± SD, MDCK
Method: as §1
Compound solutions were prepared in DMSO (20 mg/mL), and then 2-fold dilutions in cultural medium were prepared starting from 1000 μg/mL. One-day MDCK cell monolayers (over 95% confluency) in 96-well plates ([…]) were washed twice with serum-free alpha-MEM (Thermo-Fisher Scientific, USA) and treated with 100 μL of compound dilutions in 2 replicates. The plates were then incubated for 24 h at 37 °C in a CO2 incubator. Cell viability was assessed using the tetrazolium test (MTT, ApplyChem). Optical density was measured on a Wallac 1420 Victor2 microplate reader (Perkin Elmer, Ramsey, MN, USA) at 535 nm, then CC50 values were calculated.

SARS-CoV-2 = SARS-CoV-2 cytopathic effect (CPE) inhibition test; format: cell-based, strain PIK35; settings: for EC50: Severe acute respiratory syndrome coronavirus 2, 120 h, CPE inhibition in Vero cells, 5 days, M ± SD, read-out: Antiviral Activity, EC50 ± SD, SARS-CoV-2; for Activity against SARS-CoV-2 (in words): concentrations studied up to 100 μM
Excerpt: as §1, §2
The procedure was described previously. In brief, two-fold dilutions of the compounds were prepared in Dulbecco MEM (Chumakov FSC R&D IBP RAS, Russia) and mixed 1:1 with a virus suspension containing 50–200 TCID50 and incubated for 1 h at 37 °C in a CO2 incubator. The final concentration series started from 100 μM. Then, compound-virus mixtures were added to confluent Vero cell monolayers in 2 replicates. After incubation at 37 °C in a CO2-incubator for 5 days, CPE signs (cell death) were assessed via microscope, and 50% effective concentration (EC50) (compound concentration required to decrease CPE by 50%) was calculated using the Karber method.

[3] = Solubility in water (photometry); format: physicochemical; settings: for solubility at 30 min: thermodynamic from solid
Method: The samples were dissolved in DMSO, diluted in series, and photometrically analyzed. The average molar absorption coefficient was calculated from the obtained optical densities of calibration solutions at the absorption maxima. Solubility values were determined as previously described by adding weighed amounts of compounds to distilled water followed by sonication (30 min), centrifugation (12,000 rpm, 10 min), and photometry.

[4] = tested on: influenza A/California/7/09/MA virus; format: in vivo, BALB/c mice
[5] = distilled water, sonication, centrifugation, photometry

SMILES	EC50 (CHIKV; Vero)	CC50 at 5 days [1]	EC50 (IAV)	CC50 at 24 h [2]	EC50 (SARS-CoV-2)	Activity against CHIKV (in words) (CHIKV)	Activity against SARS-CoV-2 (in words) (SARS-CoV-2)	solubility at 30 min [3, 5]	Solubility in water (in words) [3]	EC50 (CHIKV; CPE inhibition in Vero cells, 5 days, M ± SD)	Average Life Expectancy (M ± SEM) ([4]; 20 mg/kg intragastric, BALB/c mice)	Protective Index (PI) ([4]; 20 mg/kg intragastric, […])	Mortality Rate ([4]; mouse, in vivo)	Reduction in body weight (maximum) ([4]; mouse, in vivo)	Solubility in Water [3, 5]
c1cc2cccc3c4ccc(-c5cn(CCN6CCOCC6)nn5)c5cccc(c(c1)c23)c54 [Compound 2a, 4-(2-(4-(Perylen-3-yl)-1H-1,2,3-triazol-1-yl)ethyl)morpholine]	0.47 ± 0.16 µM	> 100 µM	20.6 ± 8 µM	> 100 µM	11.3 ± 1.8 µM										
c1cc2cccc3c4ccc(-c5cn(CCCN6CCOCC6)nn5)c5cccc(c(c1)c23)c54 [Compound 2b, 4-(3-(4-(Perylen-3-yl)-1H-1,2,3-triazol-1-yl)propyl)morpholine]	> 100 µM	> 100 µM	62 ± 22 µM	> 100 µM	> 100 µM	did not demonstrate any activity	did not demonstrate any activity								
C[N+]1(CCn2cc(-c3ccc4c5cccc6cccc(c7cccc3c74)c65)nn2)CCOCC1.[I-] [Compound 3a, 4-Methyl-4-(2-(4-(perylen-3-yl)-1H-1,2,3-triazol-1-yl)ethyl)morpholin-4-ium iodide]	11.3 ± 9 µM	> 100 µM	49 ± 19 µM	> 100 µM	1.88 ± 0.88 µM			3.4 mM							
C[N+]1(CCCn2cc(-c3ccc4c5cccc6cccc(c7cccc3c74)c65)nn2)CCOCC1.[I-] [Compound 3b, 4-Methyl-4-(3-(4-(Perylen-3-yl)-1H-1,2,3-triazol-1-yl)propyl)morpholin-4-ium iodide]	10.7 ± 2.6 µM	> 100 µM	> 100 µM	> 100 µM	9.2 ± 4.3 µM	had activity	had activity	5 mM							
CC(C)[Si]1(C(C)C)OC[C@H]2O[C@@H](n3cc(C#Cc4ccc5c6cccc7cccc(c8cccc4c85)c76)c(=O)[nH]c3=O)[C@H](O)[C@@H]2O[Si](C(C)C)(C(C)C)O1 [Compound 5, 3′,5′-O-(Tetraisopropyldisiloxan-1,3-diyl)-5-(perylen-3-ylethynyl)uridine]	1.17 ± 0.55 µM	> 100 µM			> 100 µM		did not demonstrate any activity								
CC(C)[C@H](NC(=O)OC(C)(C)C)C(=O)O[C@@H]1[C@@H]2O[Si](C(C)C)(C(C)C)O[Si](C(C)C)(C(C)C)OC[C@H]2O[C@H]1n1cc(C#Cc2ccc3c4cccc5cccc(c6cccc2c63)c54)c(=O)[nH]c1=O [Compound 6, 2′-O-(N-Boc-L-valinyl)-3′,5′-O-(tetraisopropyldisiloxane-1,3-diyl)-5-(perylen-3-ylethynyl)uridine]	> 100 µM	> 100 µM	31 ± 10 µM	> 100 µM	> 100 µM	did not demonstrate any activity	did not demonstrate any activity								
CC(C)[C@H](NC(=O)OC(C)(C)C)C(=O)O[C@@H]1[C@H](O)[C@@H](CO)O[C@H]1n1cc(C#Cc2ccc3c4cccc5cccc(c6cccc2c63)c54)c(=O)[nH]c1=O [Compound 7, 2′-O-(N-Boc-L-valinyl)-5-(perylen-3-ylethynyl)uridine]	< 0.016 µM	98 ± 17 µM	4.6 ± 1 µM	62 ± 24 µM	0.075 ± 0.018 µM										
CC(C)[C@H](N)C(=O)O[C@@H]1[C@H](O)[C@@H](CO)O[C@H]1n1cc(C#Cc2ccc3c4cccc5cccc(c6cccc2c63)c54)c(=O)[nH]c1=O [Compound 8, 2′-O-L-Valinyl-5-(perylen-3-ylethynyl)uridine]	0.55 ± 0.33 µM	> 100 µM	3.8 ± 1.3 µM	> 100 µM	1.28 ± 0.4 µM			0.1 mM (≈ 61.8 µg/mL)	poor						
O=c1nc(NO)ccn1[C@@H]1O[C@H](CO)[C@@H](O)[C@H]1O [NHC, N^4-hydroxycytidine, reference compound]		> 100 µM			7.4 µM					9.7 µM					
CCOC(=O)C1=C[C@@H](OC(CC)CC)[C@H](NC(C)=O)[C@@H](N)C1 [Tamiflu, Oseltamivir phosphate, reference compound]			0.02 µM	> 100 µM							11.4 ± 1.1 days	56%	40%	24.0%	
O=c1[nH]c(=O)n([C@@H]2O[C@H](CO)[C@@H](O)[C@@H]2O)cc1C#Cc1ccc2c3cccc4cccc(c5cccc1c52)c43 [aUY11, 5-(Perylen-3-yl)ethynyl-arabino-uridine, reference compound]									no solubility						insoluble
